Data taken from publication PMC12102759 (Protein Science : A Publication of the Protein Society, 2025).
Read-outs that look alike come from different tables or passages of the source.

Test system: G3BP1 NFT2
Type: binding, human
Conditions: library DMS-CoV, bait G3BP1 NFT2, prey N, listed as aa = residue placed at this position, column sums to 1

Q: For “APRITFGGPSDSTGSN S10M (APRITFGGPMDSTGSN)”, which “DMS PSSM value, S (position 10)” value (peptide APRITFGGPSDSTGSN) is on record?
A: 0.2077

Q: For “RNAPRITFGGPSDSTG S14Y (RNAPRITFGGPSDYTG)”, which “DMS PSSM value, S (position 14)” value (peptide RNAPRITFGGPSDSTG) is on record?
A: 0

Q: With RNAPRITFGGPSDSTG F8K (RNAPRITKGGPSDSTG) as the sequence, how does the “DMS PSSM value, F (position 8)” value (peptide RNAPRITFGGPSDSTG) read?
A: 0

Q: Which “DMS PSSM value, G (position 14)” value (peptide APRITFGGPSDSTGSN) does the source give for “APRITFGGPSDSTGSN G14L (APRITFGGPSDSTLSN)” here?
A: 0.0229

Q: For “RNAPRITFGGPSDSTG G10N (RNAPRITFGNPSDSTG)”, which “DMS PSSM value, G (position 10)” value (peptide RNAPRITFGGPSDSTG) is on record?
A: 0

Q: APRITFGGPSDSTGSN R3Y (APYITFGGPSDSTGSN) was tested. Which “DMS PSSM value, R (position 3)” value (peptide APRITFGGPSDSTGSN) did it give?
A: 0.03984

Q: With “RNAPRITFGGPSDSTG P11G (RNAPRITFGGGSDSTG)” as the sequence, how does the “DMS PSSM value, P (position 11)” value (peptide RNAPRITFGGPSDSTG) read?
A: 0

Q: For APRITFGGPSDSTGSN G8N (APRITFGNPSDSTGSN), which “DMS PSSM value, G (position 8)” value (peptide APRITFGGPSDSTGSN) is on record?
A: 0

Q: For RNAPRITFGGPSDSTG T7K (RNAPRIKFGGPSDSTG), which “DMS PSSM value, T (position 7)” value (peptide RNAPRITFGGPSDSTG) is on record?
A: 0

Q: APRITFGGPSDSTGSN I4R (APRRTFGGPSDSTGSN) was tested. Which “DMS PSSM value, I (position 4)” value (peptide APRITFGGPSDSTGSN) did it give?
A: 0

Q: For “RNAPRITFGGPSDSTG T15I (RNAPRITFGGPSDSIG)”, which “DMS PSSM value, T (position 15)” value (peptide RNAPRITFGGPSDSTG) is on record?
A: 1

Q: With APRITFGGPSDSTGSN T5P (APRIPFGGPSDSTGSN) as the sequence, how does the “DMS PSSM value, T (position 5)” value (peptide APRITFGGPSDSTGSN) read?
A: 0

Q: With APRITFGGPSDSTGSN R3S (APSITFGGPSDSTGSN) as the sequence, how does the “DMS PSSM value, R (position 3)” value (peptide APRITFGGPSDSTGSN) read?
A: 0.004779

Q: RNAPRITFGGPSDSTG P4L (RNALRITFGGPSDSTG) was tested. Which “DMS PSSM value, P (position 4)” value (peptide RNAPRITFGGPSDSTG) did it give?
A: 0

Q: Which “DMS PSSM value, G (position 14)” value (peptide APRITFGGPSDSTGSN) does the source give for “APRITFGGPSDSTGSN G14K (APRITFGGPSDSTKSN)” here?
A: 0.00039

Q: For RNAPRITFGGPSDSTG P4S (RNASRITFGGPSDSTG), which “DMS PSSM value, P (position 4)” value (peptide RNAPRITFGGPSDSTG) is on record?
A: 0

Q: “APRITFGGPSDSTGSN S12A (APRITFGGPSDATGSN)” was tested. Which “DMS PSSM value, S (position 12)” value (peptide APRITFGGPSDSTGSN) did it give?
A: 0.01432

Q: “RNAPRITFGGPSDSTG P11L (RNAPRITFGGLSDSTG)” was tested. Which “DMS PSSM value, P (position 11)” value (peptide RNAPRITFGGPSDSTG) did it give?
A: 0

Q: Which “DMS PSSM value, S (position 10)” value (peptide APRITFGGPSDSTGSN) does the source give for “APRITFGGPSDSTGSN S10Q (APRITFGGPQDSTGSN)” here?
A: 0.008177

Q: Which “DMS PSSM value, R (position 3)” value (peptide APRITFGGPSDSTGSN) does the source give for APRITFGGPSDSTGSN R3G (APGITFGGPSDSTGSN) here?
A: 0.02417

Q: With “RNAPRITFGGPSDSTG S14W (RNAPRITFGGPSDWTG)” as the sequence, how does the “DMS PSSM value, S (position 14)” value (peptide RNAPRITFGGPSDSTG) read?
A: 0

Q: Which “DMS PSSM value, D (position 11)” value (peptide APRITFGGPSDSTGSN) does the source give for “APRITFGGPSDSTGSN D11R (APRITFGGPSRSTGSN)” here?
A: 0

Q: For “APRITFGGPSDSTGSN S10P (APRITFGGPPDSTGSN)”, which “DMS PSSM value, S (position 10)” value (peptide APRITFGGPSDSTGSN) is on record?
A: 0.1036

Q: For RNAPRITFGGPSDSTG P4A (RNAARITFGGPSDSTG), which “DMS PSSM value, P (position 4)” value (peptide RNAPRITFGGPSDSTG) is on record?
A: 0

Q: For APRITFGGPSDSTGSN T5K (APRIKFGGPSDSTGSN), which “DMS PSSM value, T (position 5)” value (peptide APRITFGGPSDSTGSN) is on record?
A: 0

Q: How did the “DMS PSSM value, D (position 11)” value (peptide APRITFGGPSDSTGSN) turn out when “APRITFGGPSDSTGSN D11K (APRITFGGPSKSTGSN)” was run?
A: 0

Q: With “RNAPRITFGGPSDSTG G10Y (RNAPRITFGYPSDSTG)” as the sequence, how does the “DMS PSSM value, G (position 10)” value (peptide RNAPRITFGGPSDSTG) read?
A: 0

Q: Which “DMS PSSM value, F (position 6)” value (peptide APRITFGGPSDSTGSN) does the source give for APRITFGGPSDSTGSN F6P (APRITPGGPSDSTGSN) here?
A: 0

Q: “RNAPRITFGGPSDSTG G16Y (RNAPRITFGGPSDSTY)” was tested. Which “DMS PSSM value, G (position 16)” value (peptide RNAPRITFGGPSDSTG) did it give?
A: 0

Q: With APRITFGGPSDSTGSN R3N (APNITFGGPSDSTGSN) as the sequence, how does the “DMS PSSM value, R (position 3)” value (peptide APRITFGGPSDSTGSN) read?
A: 0.0002259

Q: With APRITFGGPSDSTGSN P2N (ANRITFGGPSDSTGSN) as the sequence, how does the “DMS PSSM value, P (position 2)” value (peptide APRITFGGPSDSTGSN) read?
A: 0

Q: “APRITFGGPSDSTGSN S15I (APRITFGGPSDSTGIN)” was tested. Which “DMS PSSM value, S (position 15)” value (peptide APRITFGGPSDSTGSN) did it give?
A: 0.3514

Q: For “RNAPRITFGGPSDSTG G10I (RNAPRITFGIPSDSTG)”, which “DMS PSSM value, G (position 10)” value (peptide RNAPRITFGGPSDSTG) is on record?
A: 0

Q: Which “DMS PSSM value, S (position 10)” value (peptide APRITFGGPSDSTGSN) does the source give for “APRITFGGPSDSTGSN S10F (APRITFGGPFDSTGSN)” here?
A: 0.001618

Q: For RNAPRITFGGPSDSTG T7E (RNAPRIEFGGPSDSTG), which “DMS PSSM value, T (position 7)” value (peptide RNAPRITFGGPSDSTG) is on record?
A: 1

Q: With RNAPRITFGGPSDSTG R5F (RNAPFITFGGPSDSTG) as the sequence, how does the “DMS PSSM value, R (position 5)” value (peptide RNAPRITFGGPSDSTG) read?
A: 0

Q: How did the “DMS PSSM value, S (position 12)” value (peptide RNAPRITFGGPSDSTG) turn out when “RNAPRITFGGPSDSTG S12R (RNAPRITFGGPRDSTG)” was run?
A: 0

Q: With “RNAPRITFGGPSDSTG S12Q (RNAPRITFGGPQDSTG)” as the sequence, how does the “DMS PSSM value, S (position 12)” value (peptide RNAPRITFGGPSDSTG) read?
A: 0

Q: For RNAPRITFGGPSDSTG A3K (RNKPRITFGGPSDSTG), which “DMS PSSM value, A (position 3)” value (peptide RNAPRITFGGPSDSTG) is on record?
A: 0

Q: APRITFGGPSDSTGSN P9A (APRITFGGASDSTGSN) was tested. Which “DMS PSSM value, P (position 9)” value (peptide APRITFGGPSDSTGSN) did it give?
A: 0.001999

Q: How did the “DMS PSSM value, T (position 5)” value (peptide APRITFGGPSDSTGSN) turn out when APRITFGGPSDSTGSN T5Q (APRIQFGGPSDSTGSN) was run?
A: 0

Q: Which “DMS PSSM value, G (position 9)” value (peptide RNAPRITFGGPSDSTG) does the source give for RNAPRITFGGPSDSTG G9T (RNAPRITFTGPSDSTG) here?
A: 0
